Here are results for twelve molecules from patent publication US11472799B2, “Serine threonine kinase (AKT) degradation / disruption compounds and methods of use” (Icahn School of Medicine at Mount Sinai, priority 2018, dated 2022).

The assay has as its system AKT. The assay can be described thus: Western blot of AKT protein levels and downstream signaling in BT474 cells. It counts as cell-based, human. The note with it: Western blot (FIGS. 1, 3, 4). Here is the method:
PC-3, U87MG, HCC1143, MDA-MB-231, MDA-MB-468, BT474 and MCF-7 cell lines were purchased from ATCC. Cell lines were regularly tested in the lab for mycoplasma. All cells were cultured at 37° C. and 5% CO2. PC-3, U87MG, MDA-MB-231, MCF-7 and BT474 cells were cultured in 1×DMEM (Corning, 10-013-CV) with 10% fetal bovine serum (Atlanta Biologicals S11150) and 1× Penicillin/Streptomycin. HCC1143 cells were cultured in RPMI (Corning, 10-040-CV) medium with 10% fetal bovine serum (Atlanta Biologicals S11150) and 1× Penicillin/Streptomycin. Cells were split using 0.05% or 0.25% trypsin (Corning 25-051-Cl or 25-053-Cl, respectively) before they reached full confluence and media was changed every 3-4 days. Cells were treated with compounds individually at different concentrations for 24 hrs. Cells were treated with DMSO, VHL, or PML alone as controls.
Cells were lysed in 2× sample buffer (125 mM Tris-HCl at pH 6.8, 10% βME, 2% SDS, 20% glycerol, 0.05% Bromophenol Blue, 8 M urea). Protein lysates were loaded into 4-12% Bis-Tris gels and resolved by electrophoresis. Samples were then blotted on PVDF membrane (Millipore IPVH00010) using the wet transfer technique (Invitrogen). Membranes were blocked in 5% milk-TBST for 1 hour, washed in TBST for 10 min, and incubated in primary antibody in 5% milk-TBST or 5% BSA-TBST at 4° C. for 16 h. Membranes were rinsed (3×6 min) in TBST and incubated in horseradish peroxidase-conjugated secondary antibodies in 5% milk-TBST for 1 hour and rinsed again in TBST (3×6 min). Membranes were visualized using the chemiluminescence system (Thermo 34080, 37075) on autoradiography film (Denville E3018). Primary Antibodies: R-actin (Sigma A5316), p-AKT (Ser473 CST-9721), total AKT (CST-9272), p-S6 (Ser240/244, CST-5364), p-PRAS40 (Thr246, CST-2997). Secondary Antibodies: Mouse (Thermo 31432), Rabbit (Thermo 31460).
A general note: Immunoblotting shows a protein as a band on a membrane.

Consider `NC1(C(=O)N[C@@H](CCN2CCN(C(=O)CCOCCOCCOCCOCCOCCOCCNc3cccc4c3C(=O)N(C3CCC(=O)NC3=O)C4=O)CC2)c2ccc(Cl)cc2)CCN(c2ncnc3[nH]ccc23)CC1` (stereo partly drawn) [XF056-33, 4-amino-N-((1S)-1-(4-chlorophenyl)-3-(4-(1-((2-(2,6-dioxopiperidin-3-yl)-1,3-dioxoisoindolin-4-yl)amino)-3,6,9,12,15,18-hexaoxahenicosan-21-oyl)piperazin-1-yl)propyl)-1-(7H-pyrrolo[2,3-d]pyrimidin-4-yl)piperidine-4-carboxamide], for which the “suppression of AKT protein level and AKT activity” value (“suppression” for short) is “effective in suppressing both AKT protein level and AKT activity”.

`C[C@@H]1C[C@@H](O)c2ncnc(N3CCN(C(=O)[C@H](CNCCC(=O)NCCOCCOCCOCCOCCOCCNc4cccc5c4C(=O)N(C4CCC(=O)NC4=O)C5=O)c4ccc(Cl)cc4)CC3)c21` (stereo partly drawn) [XF038-177A, 3-(((S)-2-(4-chlorophenyl)-3-(4-((5R,7R)-7-hydroxy-5-methyl-6,7-dihydro-5H-cyclopenta[d]pyrimidin-4-yl)piperazin-1-yl)-3-oxopropyl)amino)-N-(17-((2-(2,6-dioxopiperidin-3-yl)-1,3-dioxoisoindolin-4-yl)amino)-3,6,9,12,15-pentaoxaheptadecyl) propanamide]: the “suppression” value was “effective in suppressing both AKT protein level and AKT activity”. Under `C[C@@H]1C[C@@H](O)c2ncnc(N3CCN(C(=O)[C@H](CNCCC(=O)NCCCCCCCCOc4cccc5c4C(=O)N(C4CCC(=O)NC4=O)C5=O)c4ccc(Cl)cc4)CC3)c21` (stereo partly drawn) [XF050-133, 3-(((S)-2-(4-chlorophenyl)-3-(4-((5R,7R)-7-hydroxy-5-methyl-6,7-dihydro-5H-cyclopenta[d]pyrimidin-4-yl)piperazin-1-yl)-3-oxopropyl)amino)-N-(8-((2-(2,6-dioxopiperidin-3-yl)-1,3-dioxoisoindolin-4-yl)oxy)octyl)propanamide] stands “effective in suppressing both AKT protein level and AKT activity”; under `Cc1ncsc1-c1ccc(CNC(=O)[C@@H]2C[C@@H](O)CN2C(=O)[C@@H](NC(=O)CCCCCCCCCCCCC(=O)N2CCN(CC[C@H](NC(=O)C3(N)CCN(c4ncnc5[nH]ccc45)CC3)c3ccc(Cl)cc3)CC2)C(C)(C)C)cc1` [XF050-145, 4-amino-N-((S)-1-(4-chlorophenyl)-3-(4-(14-(((S)-1-((2S,4R)-4-hydroxy-2-((4-(4-methylthiazol-5-yl)benzyl)carbamoyl)pyrrolidin-1-yl)-3,3-dimethyl-1-oxobutan-2-yl)amino)-14-oxotetradecanoyl)piperazin-1-yl)propyl)-1-(7H-pyrrolo[2,3-d]pyrimidin-4-yl)piperidine-4-carboxamide], “effective in suppressing both AKT protein level and AKT activity”; under `Cc1ncsc1-c1ccc(CNC(=O)[C@@H]2C[C@@H](O)CN2C(=O)[C@@H](NC(=O)CCCCCCCCCCCC(=O)N2CCN(CC[C@H](NC(=O)C3(N)CCN(c4ncnc5[nH]ccc45)CC3)c3ccc(Cl)cc3)CC2)C(C)(C)C)cc1` [XF050-144, 4-amino-N-((S)-1-(4-chlorophenyl)-3-(4-(13-(((S)-1-((2S,4R)-4-hydroxy-2-((4-(4-methylthiazol-5-yl)benzyl)carbamoyl)pyrrolidin-1-yl)-3,3-dimethyl-1-oxobutan-2-yl)amino)-13-oxotridecanoyl)piperazin-1-yl)propyl)-1-(7H-pyrrolo[2,3-d]pyrimidin-4-yl)piperidine-4-carboxamide], “effective in suppressing both AKT protein level and AKT activity”.

In the case of `C[C@@H]1C[C@@H](O)c2ncnc(N3CCN(C(=O)[C@H](CNCCNC(=O)CCOCCOCCOCCOCCOCCNc4cccc5c4C(=O)N(C4CCC(=O)NC4=O)C5=O)c4ccc(Cl)cc4)CC3)c21` (stereo partly drawn) [XF048-4, N-(2-(((S)-2-(4-chlorophenyl)-3-(4-((5R,7R)-7-hydroxy-5-methyl-6,7-dihydro-5H-cyclopenta[d]pyrimidin-4-yl)piperazin-1-yl)-3-oxopropyl)amino)ethyl)-1-((2-(2,6-dioxopiperidin-3-yl)-1,3-dioxoisoindolin-4-yl)amino)-3,6,9,12,15-pentaoxaoetadecan-18-amide], the “suppression” value was “effective in suppressing both AKT protein level and AKT activity”. In the case of `C[C@@H]1C[C@@H](O)c2ncnc(N3CCN(C(=O)[C@H](CNCCNC(=O)CCOCCOCCNc4cccc5c4C(=O)N(C4CCC(=O)NC4=O)C5=O)c4ccc(Cl)cc4)CC3)c21` (stereo partly drawn) [XF048-1, N-(2-(((N)-2-(4-chlorophenyl)-3-(4-((5R,7R)-7-hydroxy-5-methyl-6,7-dihydro-5H-cyclopenta[d]pyrimidin-4-yl)piperazin-1-yl)-3-oxopropyl)amino)ethyl)-3-(2-(2-((2-(2,6-dioxopiperidin-3-yl)-1,3-dioxoisoindolin-4-yl)amino)ethoxy)ethoxy) propanamide] it was “effective in suppressing both AKT protein level and AKT activity”. Under `Cc1ncsc1-c1ccc(CNC(=O)[C@@H]2C[C@@H](O)CN2C(=O)[C@@H](NC(=O)CCCCCCCCCNC(=O)CCNC[C@@H](C(=O)N2CCN(c3ncnc4c3[C@H](C)C[C@H]4O)CC2)c2ccc(Cl)cc2)C(C)(C)C)cc1` [XF038-165A, (2S,4R)-1-((S)-2-(10-(3-(((S)-2-(4-chlorophenyl)-3-(4-((5R,7R)-7-hydroxy-5-methyl-6,7-dihydro-5H-cyclopenta[d]pyrimidin-4-yl)piperazin-1-yl)-3-oxopropyl)amino)propanamido)decanamido)-3,3-dimethylbutanoyl)-4-hydroxy-N-(4-(4-methylthiazol-5-yl)benzyl)pyrrolidine-2-carboxamide] stands “effective in suppressing both AKT protein level and AKT activity”. Under `Cc1ncsc1-c1ccc(CNC(=O)[C@@H]2C[C@@H](O)CN2C(=O)[C@@H](NC(=O)CCCCCCCCC(=O)N2CCN(CC[C@H](NC(=O)C3(N)CCN(c4ncnc5[nH]ccc45)CC3)c3ccc(Cl)cc3)CC2)C(C)(C)C)cc1` [XF050-20, 4-amino-N-((S)-1-(4-chlorophenyl)-3-(4-(10-(((S)-1-((2S,4R)-4-hydroxy-2-((4-(4-methylthiazol-5-yl)benzyl)carbamoyl)pyrrolidin-1-yl)-3,3-dimethyl-1-oxobutan-2-yl)amino)-10-oxodecanoyl)piperazin-1-yl)propyl)-1-(7H-pyrrolo[2,3-d]pyrimidin-4-yl)piperidine-4-carboxamide] stands “effective in suppressing both AKT protein level and AKT activity”; under `NC1(C(=O)N[C@@H](CCN2CCN(C(=O)CCOCCOCCOCCOCCOCCOc3cccc4c3C(=O)N(C3CCC(=O)NC3=O)C4=O)CC2)c2ccc(Cl)cc2)CCN(c2ncnc3[nH]ccc23)CC1` (stereo partly drawn) [XF056-37, 4-amino-N-((1S)-1-(4-chlorophenyl)-3-(4-(1-((2-(2,6-dioxopiperidin-3-yl)-1,3-dioxoisoindolin-4-yl)oxy)-3,6,9,12,15-pentaoxaoctadecan-18-oyl)piperazin-1-yl)propyl)-1-(7H-pyrrolo[2,3-d]pyrimidin-4-yl)piperidine-4-carboxamide], “effective in suppressing both AKT protein level and AKT activity”; under `Cc1ncsc1-c1ccc(CNC(=O)[C@@H]2C[C@@H](O)CN2C(=O)[C@@H](NC(=O)COCC(=O)N2CCN(CC[C@H](NC(=O)C3(N)CCN(c4ncnc5[nH]ccc45)CC3)c3ccc(Cl)cc3)CC2)C(C)(C)C)cc1` [XF050-5, 4-amino-N-((S)-1-(4-chlorophenyl)-3-(4-(2-(2-(((S)-1-((2S,4R)-4-hydroxy-2-((4-(4-methylthiazol-5-yl)benzyl)carbamoyl)pyrrolidin-1-yl)-3,3-dimethyl-1-oxobutan-2-yl)amino)-2-oxoethoxy)acetyl)piperazin-1-yl)propyl)-1-(7H-pyrrolo[2,3-d]pyrimidin-4-yl)piperidine-4-carboxamide], “effective in suppressing both AKT protein level and AKT activity”.

As for `C[C@@H]1C[C@@H](O)c2ncnc(N3CCN(C(=O)[C@H](CNCCC(=O)NCCOCCOCCOCCOCCNc4cccc5c4C(=O)N(C4CCC(=O)NC4=O)C5=O)c4ccc(Cl)cc4)CC3)c21` (stereo partly drawn) [XF038-176A, 3-(((S)-2-(4-chlorophenyl)-3-(4-((5R,7R)-7-hydroxy-5-methyl-6,7-dihydro-5H-cyclopenta[d]pyrimidin-4-yl)piperazin-1-yl)-3-oxopropyl)amino)-N-(14-((2-(2,6-dioxopiperidin-3-yl)-1,3-dioxoisoindolin-4-yl)amino)-3,6,9,12-tetraoxatetradecyl)propanamide], the “suppression” value is “effective in suppressing both AKT protein level and AKT activity”.
